Patent US10132810B2, “Method for assessing and predicting efficacy of breast cancer treatment with a long-acting topoisomerase I inhibitor” (priority 2012, dated 2018)
Like-named read-outs stand apart in the source and are kept apart here.

Columns and labels:
[1] = tested on: patients with previously treated metastatic breast cancer; assay: Efficacy of two dosing schedules in patients with previously treated metastatic breast cancer (RECIST response, PFS, OS); assay type: in vivo, human
Procedure: Seventy patients were enrolled in the trial (n=35 per arm). […] Patients received treatment until disease progression or unacceptable toxicity. The drug dosage was dose-reduced by 25 mg/m^2 for grade 3-4 hematologic toxicity, grade 3-4 diarrhea, and other grade 2-4 non-hematologic toxicities (other than alopecia, anorexia, asthenia, and untreated nausea/vomiting). […] Medical history was taken at screening and on day 1 of each cycle. […] Coagulation parameters were analyzed at screening and on day 1 of each cycle. […] Patients were contacted approximately every 3 months after the end-of-treatment visit to assess progression (in the absence of progression on study), survival, receipt of subsequent anti-cancer therapy, and resolution of toxicity. […] Exploratory endpoints included change from baseline in CA27.29, UGT1A1 and ABCC2 polymorphism for correlation with select toxicities. Three populations for analysis were defined: 1) intent-to-treat (ITT), 2) efficacy evaluable, and 3) safety. The ITT population was the primary population for all efficacy analyses and included all randomized patients. […] The safety population consisted of all patients who received at least one dose or partial dose of chemotherapeutic agent. Summary statistics were used for continuous variables, frequency counts and percentages were used for categorical variables. Ninety-five percent confidence interval were calculated for ORR using the Exact method. Time-to-event variables were analyzed using the Kaplan-Meier method.

serum CA27.29 = tested on: serum CA27.29
Procedure: Medical history was taken at screening and on day 1 of each cycle. Physical exam was performed and serum CA27.29, complete blood count with differential, and serum chemistry were analyzed at screening, on day 1 of each cycle, and at end of treatment. Coagulation parameters were analyzed at screening and on day 1 of each cycle. […] Patients were contacted approximately every 3 months after the end-of-treatment visit to assess progression (in the absence of progression on study), survival, receipt of subsequent anti-cancer therapy, and resolution of toxicity.
Secondary endpoints were PFS, overall survival (OS), 6-month and 1-year survival, and safety. Exploratory endpoints included change from baseline in CA27.29, UGT1A1 and ABCC2 polymorphism for correlation with select toxicities.
The analysis dataset utilized consisted of 45 patients having at least two CA27.29 measurements (pre- and post-first dose).
Levels of CA27.29 were also evaluated for correlation with tumor size over the course of treatment.

In the case of “Pentaerythritolyl-4-Arm-(PEG-1-Methylene-2 Oxo-Vinylamino Acetate linked-Irinotecan)-20K [4-arm-PEG-gly-irino-20K]”, the “objective response rate (ORR)” value ([1]; 145 mg/m^2 iv, administered every 14 days or every 21 days) is reported as 28.6%, the “Overall Survival (OS)” value ([1]; Total (both schedules)) is reported as 10.3 months and the “Progression Free Survival (PFS)” value ([1]; Total (both schedules)) is reported as 4.6 months. The “Overall Response Rate (ORR)” value ([1]; Total (both schedules), N = 66) was 29% (N = 66), the “Overall Survival (OS)” value ([1]; q21d schedule) was 13.1 months and the “Progression Free Survival (PFS)” value ([1]; q21d schedule) was 5.3 months. The “decrease in serum CA27.29 levels over time” value (serum CA27.29; 145 mg/m^2, both q14d and q21d regimens, FIGS. 1A and 1B) was “at least twenty five”, the “median change in CA27.29” value (serum CA27.29; RECIST PD, FIG. 5) was “increased” and the “median of the maximum CA27.29 decline” value (serum CA27.29; RECIST PR and CR, FIG. 5) was > 50%. The “median decline in CA27.29” value (serum CA27.29; RECIST SD < 6 months, FIG. 5) was “negligible”, the “median of the maximum decline in CA27.29” value (serum CA27.29; RECIST SD >= 6 months, FIG. 5) was 30% and the “Overall best CA27.29 response (50% or better decline in at least one observation from baseline)” value (serum CA27.29; Total, 16/45 patients) was 36% (16/45). For the same substance, the “median PFS” value (serum CA27.29; patients with <25% reduction (n=4) or elevations (n=13) in CA27.29 by week 6) was 6 months, the “median PFS” value (serum CA27.29; patients with >=25% reduction in CA27.29 by week 6 (n=12)) was 12 months and the “patients showing CA27.29 elevation from baseline” value (serum CA27.29; patients with RECIST PD (8/10)) was “Eighty”. For the same substance, the “patients manifesting declines in CA27.29” value (serum CA27.29; patients with RECIST SD >= 6 months (n=5)) was “All patients” and the “patients showing a decline in CA27.29” value (serum CA27.29; patients with SD < 6 months (6/11)) was 55%.
